Data: patent US20230192789A1, “STRUCTURALLY-STABILIZED AND HDMX-SELECTIVE P53 PEPTIDES AND USES THEREOF” (Dana-Farber Cancer Institute, Inc., priority 2020, published 2023)
Entries after “also recorded” stand apart in the source; their conditions may differ. Bridges are numbered along the chain shown (N, C = ends). [ ]: non-standard residue; d: D form. The star is where a group is joined. Biotin = O=C1N[C@H]2[C@H](CS[C@H]2CCCCC(=O)*)N1; R8 = C=CCCCCCC[C@@](C)(N)C(=O)O; S5 = C=CCCC[C@](C)(N)C(=O)O

Assays:
[1] = biological target: T1, recombinant HDMX (amino acids 1-490 of SEQ ID NO:104) (Homo sapiens, UniProt O15151); assay: Competitive streptavidin pull-down of biotinylated peptides with 1:1 recombinant HDM2/HDMX mixture, HDMX western; format: binding; conditions: biotinylated stapled peptide, 1:1 mixture of recombinant HDM2 and HDMX
T1 construct: thioredoxin (N, cleaved yes); S tag (N, cleaved yes); hexahistidine (N, cleaved yes); made in house; host or cells: E. coli (inferred: pET32-LIC vector, handled as described for HDM2 in BL21(DE3))
T1 sequence (O15151 1-490): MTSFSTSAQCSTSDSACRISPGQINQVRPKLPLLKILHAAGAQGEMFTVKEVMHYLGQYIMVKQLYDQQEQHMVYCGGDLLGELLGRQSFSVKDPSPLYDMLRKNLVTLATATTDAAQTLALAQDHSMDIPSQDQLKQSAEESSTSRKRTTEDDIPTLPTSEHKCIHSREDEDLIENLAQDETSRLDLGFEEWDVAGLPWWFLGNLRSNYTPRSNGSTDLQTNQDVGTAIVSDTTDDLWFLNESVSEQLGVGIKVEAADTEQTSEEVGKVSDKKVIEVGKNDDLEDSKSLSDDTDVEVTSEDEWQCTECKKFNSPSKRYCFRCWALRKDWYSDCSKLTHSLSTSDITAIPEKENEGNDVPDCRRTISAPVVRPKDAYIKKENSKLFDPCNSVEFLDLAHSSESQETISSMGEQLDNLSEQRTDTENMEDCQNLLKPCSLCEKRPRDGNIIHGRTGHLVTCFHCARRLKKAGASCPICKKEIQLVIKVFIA

OCI-AML2 cells [2] = assay: LDH release assay, OCI-AML2; format: cell-based; conditions: OCI-AML2, 90 minutes after peptide treatment, highest dosing level
Protocol: (§1) LDH release assay: To assess the release of lactate dehydrogenase (LDH) upon treatment with a structurally-stabilized peptide described herein, an LDH release assay can be used. Cultured cells, including, e.g., cancer cells and HUVEC cells, are plated in 96-well format (2x10^4 cells per well; including overnight incubation for adherent cells) and then treated with serial dilutions of structurally-stabilized peptides in a final volume of 100 µL and incubated at 37° C. for the indicated time period (e.g., 90 minutes). The plates are spun down at 1500 rpm for 5 minutes at 4° C., and 80 µL of cell culture media is transferred to a clear plate (Corning), incubated with 80 µL of LDH reagent (Roche) for 15 minutes while shaking, and absorbance is measured at 490 nm on a microplate reader (SpectraMax M5 Microplate Reader, Molecular Devices).
(§2) LDHRelease Assay: OCI-AML2 cells (1 × 10^4 cells/well) were plated in 96-well plates and treated with the indicated peptides or vehicle (0.2% DMSO). After 1.5 hours incubation at 37° C., 100 µl of cell medium was transferred to a 96-well clear plate and incubated with 100 µl of LDH reagent (Roche) for 25 minutes while shaking, and absorbance at 490 nm measured on a microplate reader (SpectraMax M5 Microplate Reader, Molecular Devices).

EOL-1 cells = assay: LDH release assay, EOL-1; format: cell-based; conditions: EOL-1, 90 minutes after peptide treatment, highest dosing level
Protocol: as §1, §2

EOL-1 cancer cells = assay: Cell viability, EOL-1; conditions: EOL-1, 48 and 72 hours of treatment, acetylated stapled peptide
OCI-AML2 cells [3] = assay: Cell viability (CellTiter-Glo), OCI-AML2; conditions: OCI-AML2, 48 and 72 hours of treatment, acetylated stapled peptide
[4] = biological target: T2, recombinant HDM2 (amino acids 17-125 of SEQ ID NO:103) (human, UniProt Q00987 17-125); assay: streptavidin pull-down of biotinylated peptide with recombinant HDM2 and HDMX (1:1 mixture per paragraph 301), western blot
T2 construct: also called MDM2; not shown: thrombin cleavage site (pET28a vector)
T2 sequence (Q00987 other isoform, or with tags, fused parts or gaps): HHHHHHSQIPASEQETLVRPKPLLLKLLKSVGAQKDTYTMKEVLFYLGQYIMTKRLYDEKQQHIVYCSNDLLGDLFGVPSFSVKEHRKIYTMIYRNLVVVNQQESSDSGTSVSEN

HDMX versus HDM2 binding selectivity [1] | binding result [4] | Molecule | non-specific membrane disruption (LDH release) (OCI-AML2 cells [2]) | non-specific membrane disruption (LDH release) (EOL-1 cells) | cancer cell cytotoxicity (EOL-1 cancer cells) | cancer cell cytotoxicity (OCI-AML2 cells [3])
selectivity to HDMX |  | COC(=O)CC[C@@H]1NC(=O)[C@H](CCC(N)=O)NC(=O)[C@H](C)NC(=O)[C@H](Cc2c[nH]c3ccccc23)NC(=O)[C@H](Cc2ccc(O)cc2)NC(=O)[C@H](CCC(=O)O)NC(=O)[C@](C)(NC(=O)[C@H](Cc2ccccc2)NC(=O)[C@@H](NC(=O)[C@H](CC(C)C)NC(C)=O)[C@@H](C)O)CCCCCCC=CCCC[C@@](C)(C(=O)N[C@@H](CO)C(=O)N[C@@H](C)C(=O)N[C@@H](C)C(N)=O)NC1=O [ATSP-7041 B26E(OMe), LTF8EYWAQ#XSAA] | no non-specific membrane disruptive activity | no non-specific membrane disruptive activity | dose-responsive cancer cell cytotoxicity; also recorded: enhance killing activity | dose-responsive cancer cell cytotoxicity; also recorded: enhance killing activity
 | no binding | Biotin-QSQQTF[R8]NLWRLE[S5]QN-NH2 (staple 7-14, also called QSQQTF8NLWRLEXQN) [SAH-p53-8 L26E] |  |  |  | 
